Experimental data published in ChEMBL document CHEMBL4477199, “Design and synthesis of novel bicalutamide and enzalutamide derivatives as antiproliferative agents for the treatment of prostate cancer” (Eur J Med Chem, 2016).

How the values were obtained:
VCaP = experiment: Antiproliferative activity against human VCaP cells after 96 hrs by propidium iodide staining based fluorescence 2D monolayer assay; type: functional, cell-based
[1] = 96 h
Description: Solubility in RPMI1640 culture medium at <30 uM incubated for 4 days by microscopic analysis

LNCaP = experiment: Antiproliferative activity against human LNCAP cells after 96 hrs by propidium iodide staining based fluorescence 2D monolayer assay; type: functional, cell-based
CWR22R = experiment: Antiproliferative activity against human 22Rv1 cells after 96 hrs by propidium iodide staining based fluorescence 2D monolayer assay; type: functional, cell-based; settings: 22Rv1, 96 h
DU-145 = experiment: Antiproliferative activity against human DU145 cells after 96 hrs by propidium iodide staining based fluorescence 2D monolayer assay; type: functional, cell-based; settings: DU-145, 96 h
[2] = 33000 µM
Description: Solubility in 100% DMSO at 33 mM at -20 degC

SMILES | IC50 (VCaP) [µM] | solubility [1] | IC50 (LNCaP) [µM] | IC50 (CWR22R) [µM] | IC50 (DU-145) [µM] | solubility [2]
CC(O)(CS(=O)(=O)c1ccc(F)cc1F)C(=O)Nc1ccc([N+](=O)[O-])cc1C(F)(F)F (stereo not drawn) | 58 | Soluble | 17.9 | 30.2 | 46.6 | Soluble
CC(O)(COc1ccc(OC(F)(F)F)cc1)C(=O)Nc1ccc(C#N)c(C(F)(F)F)c1 (stereo not drawn) | 17.6 | Soluble | 13.6 | 17.2 | 18.4 | Soluble
CC(O)(CS(=O)(=O)c1ccc(C(F)(F)F)cc1)C(=O)Nc1ccc(C#N)cc1C(F)(F)F (stereo not drawn) | 43.3 | Soluble | 32.9 | 27.9 | 44.6 | Soluble
CC(O)(CS(=O)(=O)c1cccc(C(F)(F)F)c1)C(=O)Nc1ccc(C#N)c(C(F)(F)F)c1 (stereo not drawn) | 39.7 | Soluble | 14.9 | 21 | 39.1 | Soluble
CC(O)(COc1cccc(C(F)(F)F)c1)C(=O)Nc1ccc([N+](=O)[O-])cc1C(F)(F)F (stereo not drawn) | 19.3 | Soluble | 12.9 | 15.2 | 18.1 | Soluble
CC(O)(COc1ccc(C(F)(F)F)cc1)C(=O)Nc1ccc([N+](=O)[O-])c(C(F)(F)F)c1 (stereo not drawn) | 10.9 | Soluble | 17.2 | 16.2 | 25.9 | Soluble
CC(O)(COc1ccc(C(F)(F)F)cn1)C(=O)Nc1ccc(C#N)cc1C(F)(F)F (stereo not drawn) | 100 | Soluble | 100 | 100 | 100 | Soluble
CC(O)(CS(=O)(=O)c1cccc(C(F)(F)F)c1)C(=O)Nc1ccc([N+](=O)[O-])cc1C(F)(F)F (stereo not drawn) | 38.7 | Soluble | 16.8 | 18.1 | 32 | Soluble
CC(O)(CSc1cccc(C(F)(F)F)c1)C(=O)Nc1ccc(C(F)(F)F)cc1 (stereo not drawn) | 19.5 | Soluble | 22.6 | 18.6 | 30.7 | Soluble
CC1(C)C(=O)N(c2cccc(C(F)(F)F)c2)C(=O)N1c1ccc(C#N)cc1C(F)(F)F | 100 | Soluble | 18.3 | 59.3 | 100 | Soluble
CC(O)(CSc1ccc(C(F)(F)F)cn1)C(=O)Nc1ccc([N+](=O)[O-])cc1C(F)(F)F (stereo not drawn) | 17.2 | Soluble | 11.1 | 13.6 | 19.7 | Soluble
CC(O)(CSc1cccc(OC(F)(F)F)c1)C(=O)Nc1ccc([N+](=O)[O-])cc1C(F)(F)F (stereo not drawn) | 15.9 | Soluble | 9.15 | 15.8 | 21.6 | Soluble
CC(O)(CS(=O)(=O)c1ccc(C(F)(F)F)cn1)C(=O)Nc1ccc([N+](=O)[O-])cc1C(F)(F)F (stereo not drawn) | 100 | Soluble | 100 | 100 | 100 | Soluble
CC(O)(COc1ccc(C(F)(F)F)cc1)C(=O)Nc1ccc([N+](=O)[O-])cc1C(F)(F)F (stereo not drawn) | 18.6 | Soluble | 13.6 | 18.9 | 22.1 | Soluble
C[C@](O)(CS(=O)(=O)c1ccc(F)cc1F)C(=O)Nc1ccc(C#N)c(C(F)(F)F)c1 | 60.9 | Soluble | 42.3 | 42.2 | 60.2 | Soluble
C[C@](O)(CS(=O)(=O)c1ccc(F)cc1)C(=O)Nc1ccc(C#N)cc1C(F)(F)F | 100 | Soluble | 85.5 | 100 | 100 | Soluble
CC(O)(CSc1cccc(C(F)(F)F)c1)C(=O)Nc1ccc([N+](=O)[O-])cc1C(F)(F)F (stereo not drawn) | 16.5 | Soluble | 10.1 | 12.6 | 14.3 | Soluble
CC1(C)C(=O)N(c2ccc(C(F)(F)F)cc2)C(=O)N1c1ccc(C#N)c(C(F)(F)F)c1 | 30.1 | Soluble | 9.37 | 63.6 | 100 | Soluble
CC(O)(CS(=O)(=O)c1ccc(F)cc1)C(=O)Nc1ccc([N+](=O)[O-])cc1C(F)(F)F (stereo not drawn) | 58.2 | Soluble | 38.6 | 46.7 | 60.7 | Soluble
CC(O)(CSc1ccccc1C(F)(F)F)C(=O)Nc1ccc(C#N)cc1C(F)(F)F (stereo not drawn) | 18.3 | Soluble | 10.7 | 11.6 | 18.4 | Soluble
CC(O)(CS(=O)(=O)c1cccc(OC(F)(F)F)c1)C(=O)Nc1ccc([N+](=O)[O-])cc1C(F)(F)F (stereo not drawn) | 20.3 | Soluble | 12.2 | 18 | 27.7 | Soluble
CC1(C)C(=O)N(c2ccc(C(F)(F)F)cc2)C(=O)N1c1cccc(C(F)(F)F)c1 | 72.4 | Soluble | 5.95 | 100 | 100 | Soluble
CC(O)(COc1cccc(C(F)(F)F)c1)C(=O)Nc1ccc([N+](=O)[O-])c(C(F)(F)F)c1 (stereo not drawn) | 10.3 | Soluble | 9.91 | 8.58 | 10 | Soluble
CC(O)(CS(=O)(=O)c1ccc(F)c(F)c1)C(=O)Nc1ccc([N+](=O)[O-])cc1C(F)(F)F (stereo not drawn) | 37.3 | Soluble | 19.5 | 33.6 | 48.1 | Soluble
CC(O)(COc1ccc(C#N)cc1)C(=O)Nc1ccc(C#N)cc1C(F)(F)F (stereo not drawn) | 61.4 | Soluble | 34.7 | 42.9 | 100 | Soluble
CC(O)(CSc1ccc(C(F)(F)F)cc1)C(=O)Nc1ccc([N+](=O)[O-])c(C(F)(F)F)c1 (stereo not drawn) | 21.2 | Soluble | 28.7 | 16.4 | 22.5 | Soluble
CC(O)(CSc1ccc(F)cc1)C(=O)Nc1ccc(C#N)cc1C(F)(F)F (stereo not drawn) | 45.5 | Soluble | 26.4 | 30.1 | 43.3 | Soluble
CC(O)(COc1cccc(C(F)(F)F)c1)C(=O)Nc1ccc(C#N)c(C(F)(F)F)c1 (stereo not drawn) | 9.04 | Soluble | 8.31 | 5.89 | 10.8 | Soluble
